Reference: patent US20050130252A1, “Stabilized susceptibility tests of aerobic pathogens” (Wyeth Holdings Corporation, priority 2003, published 2005)

Columns and labels:
[1] = HPLC analysis of early peak formation of tigecycline in water and MHB; format: physicochemical; settings: stored overnight at RT
Method: To test the hypothesis, solutions of tigecycline were prepared in water, fresh MHB and aged MHB. The solutions were stored overnight at RT, then subjected to HPLC analysis to look for degradation of tigecycline. […] This confirmed that the formation of early peak of tigecycline was accelerated in the aged media.
In experiment 1 three experimental test samples were examined for early peak formation of tigecycline. In experiment 2 six experimental test samples were evaluated to determine the early peak of tigecycline which occurs in 24 hours. Results are as listed below:
Tigecycline at a concentration of 1 mg/mL in each of the above vehicles was prepared, assayed at time zero and 1 day @ RT.
The HPLC parameters are listed below: • HPLC column: Luna C18(2), 5 μm, 4.6×150 mm • Detection: UV @ 250 nm • Flow Rate: 1.5 mL/min • Injection volume=30 μL • Mobile Phase A: 6.8 g KH2PO4 in 950 mL water, pH to 6.2 with KOH, mixed with 50 mL acetonitrile • Mobile Phase B: 6.8 g KH2PO4 in 500 mL water, pH to 6.2 with KOH, mixed with 500 mL acetonitrile

[2] = tested on: Enterococcus faecalis GC2242 Vancomycin-Resistant; experiment: Agar dilution in vitro activity; format: cell-based; settings: E. faecalis GC2242 Vancomycin-Resistant
Method: (§1) The in vitro activities of tigecycline and control antibiotics were determined by the broth microdilution method as recommended by the NCCLS. (National Committee for Clinical Laboratory Standards, 2003. Methods for Dilution Antimicrobial Susceptibility Tests for Bacteria That Grow Aerobically; Approved Standards: M7-A6, Sixth ed, vol. 23., National Committee for Clinical Laboratory Standards Wayne, Pa.) was used for the standard procedures. MBH with 5% lysed horse blood was used for testing S. pneumoniae and Haemophilus Test Medium was used for testing H. influenzae. […] Media age studies were performed by preparing MHB in multiple flasks, then storing the media under various conditions. MICs were usually performed in duplicate on each day of testing. Storage under anaerobic conditions was conducted in an anaerobic chamber (MACS MG 1000, Don Whitley Scientific LTD). The pH of the media was determined by pH meter (Corning 430). A comparison of the in vitro activity of tigecycline by agar and broth dilution methodolgies with and without Oxyrase® against clinical isolates is shown in Table 1.

[3] = tested on: Escherichia coli GC4559 parent GC4560; experiment: Agar dilution in vitro activity; format: cell-based; settings: E. coli GC4559
Method: as §1

[4] = tested on: Escherichia coli GC4560 IMP mutant; experiment: Agar dilution in vitro activity; format: cell-based; settings: E. coli GC4560 IMP mutant
Method: as §1

[5] = tested on: Escherichia coli GC2270 tet(M); experiment: Agar dilution in vitro activity; format: cell-based; settings: E. coli GC2270 tet(M)
Method: as §1

[6] = tested on: Staphylococcus aureus GC6467 Clinical - tet(M) + (K); experiment: Agar dilution in vitro activity; format: cell-based; settings: S. aureus GC6467 tet(M) + (K)
Method: as §1

[7] = tested on: Enterococcus faecalis GC4555 ATCC Control; experiment: Agar dilution in vitro activity; format: cell-based; settings: E. faecalis GC4555 ATCC Control
Method: as §1

[8] = tested on: Escherichia coli GC2203 ATCC Control; experiment: Agar dilution in vitro activity; format: cell-based; settings: E. coli GC2203 ATCC Control
Method: as §1

[9] = tested on: Escherichia coli GC1073 tet(B) wt; experiment: Agar dilution in vitro activity; format: cell-based; settings: E. coli GC1073 tet(B) wt
Method: as §1

[10] = tested on: Staphylococcus aureus GC6466 Clinical - tet(M); experiment: Agar dilution in vitro activity; format: cell-based; settings: S. aureus GC6466 tet(M)
Method: as §1

[11] = tested on: Staphylococcus aureus GC1131 Clinical isolate; experiment: Agar dilution in vitro activity; format: cell-based; settings: S. aureus GC1131
Method: as §1

[12] = tested on: Staphylococcus aureus GC2216 ATCC Control; experiment: Agar dilution in vitro activity; format: cell-based; settings: S. aureus GC2216 ATCC Control
Method: as §1

[13] = tested on: Candida albicans GC3066 ATCC Control; experiment: Agar dilution in vitro activity; format: cell-based; settings: C. albicans GC3066 ATCC Control
Method: as §1

[14] = tested on: Staphylococcus aureus GC4536 Smith MP -In Vivo; experiment: Agar dilution in vitro activity; format: cell-based; settings: S. aureus GC4536 Smith
Method: as §1

In the case of `CN(C)c1cc(NC(=O)CNC(C)(C)C)c(O)c2c1C[C@H]1C[C@H]3[C@H](N(C)C)C(O)=C(C(N)=O)C(=O)[C@@]3(O)C(O)=C1C2=O` [Tigecycline, tigecycline], the “Amount of the early peak (HPLC) relative to the amount in water (ratio)” value ([1]; tigecycline solution in aged MHB) was “about 35”, the “Amount of the early peak (HPLC) relative to the amount in water” value ([1]; tigecycline solution in fresh MHB) was “about 12 times” and the “In Vitro Activity of Tigecycline” value ([2]; Oxyrase (10%)) was 0.12. For the same compound, the “In Vitro Activity of Tigecycline” value ([2]; no Oxyrase) was 0.12, the “In Vitro Activity of Tigecycline” value ([3]; Oxyrase (10%)) was 0.12 and the “In Vitro Activity of Tigecycline” value ([3]; no Oxyrase) was 0.25. For the same compound, the “In Vitro Activity of Tigecycline” value ([4]; Oxyrase (10%)) was 0.03, the “In Vitro Activity of Tigecycline” value ([4]; no Oxyrase) was 0.03 and the “In Vitro Activity of Tigecycline” value ([5]; Oxyrase (10%)) was 0.12. The “In Vitro Activity of Tigecycline” value ([5]; no Oxyrase) was 0.25, the “In Vitro Activity of Tigecycline” value ([6]; Oxyrase (10%)) was 0.5 and the “In Vitro Activity of Tigecycline” value ([6]; no Oxyrase) was 1. The “In Vitro Activity of Tigecycline” value ([7]; Oxyrase (10%)) was 0.12, the “In Vitro Activity of Tigecycline” value ([7]; no Oxyrase) was 0.12 and the “In Vitro Activity of Tigecycline” value ([8]; Oxyrase (10%)) was 0.12. For the same compound, the “In Vitro Activity of Tigecycline” value ([8]; no Oxyrase) was 0.25, the “In Vitro Activity of Tigecycline” value ([9]; Oxyrase (10%)) was 0.25 and the “In Vitro Activity of Tigecycline” value ([9]; no Oxyrase) was 0.25. For the same compound, the “In Vitro Activity of Tigecycline” value ([10]; Oxyrase (10%)) was 0.12, the “In Vitro Activity of Tigecycline” value ([10]; no Oxyrase) was 0.25 and the “In Vitro Activity of Tigecycline” value ([11]; Oxyrase (10%)) was 0.25. For the same compound, the “In Vitro Activity of Tigecycline” value ([11]; no Oxyrase) was 0.25, the “In Vitro Activity of Tigecycline” value ([12]; Oxyrase (10%)) was 0.25 and the “In Vitro Activity of Tigecycline” value ([12]; no Oxyrase) was 0.5. The “In Vitro Activity of Tigecycline” value ([13]; Oxyrase (10%)) was greater than 16, the “In Vitro Activity of Tigecycline” value ([13]; no Oxyrase) was greater than 16 and the “In Vitro Activity of Tigecycline” value ([14]; Oxyrase (10%)) was 0.12. The “In Vitro Activity of Tigecycline” value ([14]; no Oxyrase) was 0.25.
